According to PubChem BioAssay (NCI):
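Cells were grown in 96-well plates and exposed to each compound for 48 hours at five concentrations; endpoints were interpolated linearly between bracketing concentrations, or set to the highest concentration if not reached. Definition used: TGI = concentration required for complete inhibition of growth.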

Experiments:
Assay in all cases: NCI tumour cell line growth inhibition, 48 h
SNB-19 CNS = tested on: SNB-19 CNS
MOLT-4 leukemia = tested on: MOLT-4 leukemia
LOX IMVI melanoma = tested on: LOX IMVI melanoma
K-562 leukemia = tested on: K-562 leukemia
CCRF-CEM leukemia = tested on: CCRF-CEM leukemia
DMS 114 small cell lung = tested on: DMS 114 small cell lung
SK-OV-3 ovarian = tested on: SK-OV-3 ovarian
SK-MEL-5 melanoma = tested on: SK-MEL-5 melanoma
M19-MEL melanoma = tested on: M19-MEL melanoma
HCC-2998 colon = tested on: HCC-2998 colon
IGROV1 ovarian = tested on: IGROV1 ovarian
SF-295 CNS = tested on: SF-295 CNS
ACHN renal = tested on: ACHN renal
M14 melanoma = tested on: M14 melanoma
NCI-H226 lung = tested on: NCI-H226 lung
XF 498 CNS = tested on: XF 498 CNS
RXF-631 renal = tested on: RXF-631 renal
RXF 393 renal = tested on: RXF 393 renal
HOP-92 NSCLC = tested on: HOP-92 NSCLC
NCI-H460 lung = tested on: NCI-H460 lung
HCT-116 colon = tested on: HCT-116 colon
HCT-15 colon = tested on: HCT-15 colon
OVCAR-4 ovarian = tested on: OVCAR-4 ovarian
SK-MEL-28 melanoma = tested on: SK-MEL-28 melanoma
DLD-1 colon = tested on: DLD-1 colon
SN12C renal = tested on: SN12C renal
HOP-18 NSCLC = tested on: HOP-18 NSCLC
OVCAR-5 ovarian = tested on: OVCAR-5 ovarian
EKVX NSCLC = tested on: EKVX NSCLC
HL-60(TB) leukemia = tested on: HL-60(TB) leukemia
COLO 205 colon = tested on: COLO 205 colon
UO-31 renal = tested on: UO-31 renal
KM12 colon = tested on: KM12 colon
SK-MEL-2 melanoma = tested on: SK-MEL-2 melanoma
NCI-H23 lung = tested on: NCI-H23 lung
RPMI-8226 leukemia = tested on: RPMI-8226 leukemia
SF-539 CNS = tested on: SF-539 CNS
TK-10 renal = tested on: TK-10 renal
SR leukemia = tested on: SR leukemia
786-0 renal = tested on: 786-0 renal
MALME-3M melanoma = tested on: MALME-3M melanoma
OVCAR-3 ovarian = tested on: OVCAR-3 ovarian
KM20L2 colon = tested on: KM20L2 colon
SW-620 colon = tested on: SW-620 colon
HT29 colon = tested on: HT29 colon
SF-268 CNS = tested on: SF-268 CNS
U251 CNS = tested on: U251 CNS
HOP-62 NSCLC = tested on: HOP-62 NSCLC
A549 NSCLC = tested on: A549 NSCLC
OVCAR-8 ovarian = tested on: OVCAR-8 ovarian
LXFL 529 NSCLC = tested on: LXFL 529 NSCLC
UACC-62 melanoma = tested on: UACC-62 melanoma
UACC-257 melanoma = tested on: UACC-257 melanoma
NCI-H522 lung = tested on: NCI-H522 lung
NCI/ADR-RES ovarian = tested on: NCI/ADR-RES ovarian
P388/ADR leukemia = tested on: P388/ADR leukemia
DMS 273 small cell lung = tested on: DMS 273 small cell lung
A498 renal = tested on: A498 renal
SNB-78 CNS = tested on: SNB-78 CNS
SNB-75 CNS = tested on: SNB-75 CNS
MCF7 breast = tested on: MCF7 breast
SN12K1 renal = tested on: SN12K1 renal
CAKI-1 renal = tested on: CAKI-1 renal
P388 leukemia = tested on: P388 leukemia
MDA-N = tested on: MDA-N
MDA-MB-435 = tested on: MDA-MB-435
DU-145 prostate = tested on: DU-145 prostate
MDA-MB-231 breast = tested on: MDA-MB-231 breast
BT-549 breast = tested on: BT-549 breast
PC-3 prostate = tested on: PC-3 prostate
T-47D breast = tested on: T-47D breast
HS 578T breast = tested on: HS 578T breast

CCCCOC(=O)NC(=O)c1cn(CCCOC(=O)CCCCCCCCC(=O)OCCCn2cc(C(=O)NC(=O)OCCCC)c(=O)[nH]c2=O)c(=O)[nH]c1=O
TGI (SNB-19 CNS): > 100 µM
TGI (MOLT-4 leukemia): > 100 µM
TGI (LOX IMVI melanoma): > 100 µM
TGI (K-562 leukemia): > 100 µM
TGI (CCRF-CEM leukemia): > 100 µM
TGI (DMS 114 small cell lung): > 100 µM
TGI (SK-OV-3 ovarian): > 100 µM
TGI (SK-MEL-5 melanoma): > 100 µM
TGI (M19-MEL melanoma): > 100 µM
TGI (HCC-2998 colon): > 100 µM
TGI (IGROV1 ovarian): > 100 µM
TGI (SF-295 CNS): > 100 µM
TGI (ACHN renal): > 100 µM
TGI (M14 melanoma): > 100 µM
TGI (NCI-H226 lung): > 100 µM
TGI (XF 498 CNS): > 100 µM
TGI (RXF-631 renal): > 100 µM
TGI (RXF 393 renal): > 100 µM
TGI (HOP-92 NSCLC): > 100 µM
TGI (NCI-H460 lung): > 100 µM
TGI (HCT-116 colon): > 100 µM
TGI (HCT-15 colon): > 100 µM
TGI (OVCAR-4 ovarian): > 100 µM
TGI (SK-MEL-28 melanoma): > 100 µM
TGI (DLD-1 colon): > 100 µM
TGI (SN12C renal): > 100 µM
TGI (HOP-18 NSCLC): > 100 µM
TGI (OVCAR-5 ovarian): > 100 µM
TGI (EKVX NSCLC): > 100 µM
TGI (HL-60(TB) leukemia): > 100 µM
TGI (COLO 205 colon): > 100 µM
TGI (UO-31 renal): > 100 µM
TGI (KM12 colon): > 100 µM
TGI (SK-MEL-2 melanoma): > 100 µM
TGI (NCI-H23 lung): > 100 µM
TGI (RPMI-8226 leukemia): > 100 µM
TGI (SF-539 CNS): > 100 µM
TGI (TK-10 renal): > 100 µM
TGI (SR leukemia): > 100 µM
TGI (786-0 renal): > 100 µM
TGI (MALME-3M melanoma): > 100 µM
TGI (OVCAR-3 ovarian): > 100 µM
TGI (KM20L2 colon): > 100 µM
TGI (SW-620 colon): > 100 µM
TGI (HT29 colon): > 100 µM
TGI (SF-268 CNS): > 100 µM
TGI (U251 CNS): > 100 µM
TGI (HOP-62 NSCLC): > 100 µM
TGI (A549 NSCLC): > 100 µM
TGI (OVCAR-8 ovarian): > 100 µM
TGI (LXFL 529 NSCLC): > 100 µM
TGI (UACC-62 melanoma): > 100 µM
TGI (UACC-257 melanoma): > 100 µM

O=C1c2ccccc2C(O)(C(=O)O)C1(O)CC=C(Cl)Cl (centres undefined)
TGI (NCI-H522 lung): > 125000 nM
TGI (SNB-19 CNS): > 78.9 µM
TGI (MOLT-4 leukemia): > 125 µM
TGI (LOX IMVI melanoma): > 125 µM
TGI (K-562 leukemia): > 125 µM
TGI (CCRF-CEM leukemia): > 125 µM
TGI (DMS 114 small cell lung): > 125 µM
TGI (SK-OV-3 ovarian): > 125 µM
TGI (NCI/ADR-RES ovarian): > 125 µM
TGI (P388/ADR leukemia): > 70.3 µM
TGI (SK-MEL-5 melanoma): > 125 µM
TGI (M19-MEL melanoma): > 125 µM
TGI (HCC-2998 colon): > 125 µM
TGI (IGROV1 ovarian): > 125 µM
TGI (SF-295 CNS): > 125 µM
TGI (DMS 273 small cell lung): > 125 µM
TGI (NCI-H226 lung): > 125 µM
TGI (XF 498 CNS): > 125 µM
TGI (A498 renal): > 125 µM
TGI (RXF 393 renal): > 125 µM
TGI (HOP-92 NSCLC): > 117 µM
TGI (NCI-H460 lung): > 125 µM
TGI (HCT-116 colon): > 125 µM
TGI (HCT-15 colon): > 125 µM
TGI (OVCAR-4 ovarian): > 125 µM
TGI (SK-MEL-28 melanoma): > 125 µM
TGI (DLD-1 colon): > 125 µM
TGI (SN12C renal): > 125 µM
TGI (HOP-18 NSCLC): > 125 µM
TGI (OVCAR-5 ovarian): > 125 µM
TGI (EKVX NSCLC): > 125 µM
TGI (HL-60(TB) leukemia): > 125 µM
TGI (SNB-78 CNS): > 125 µM
TGI (COLO 205 colon): > 125 µM
TGI (UO-31 renal): > 125 µM
TGI (KM12 colon): > 125 µM
TGI (SK-MEL-2 melanoma): > 125 µM
TGI (NCI-H23 lung): > 125 µM
TGI (SNB-75 CNS): > 125000 nM
TGI (RPMI-8226 leukemia): > 125 µM
TGI (SF-539 CNS): > 125 µM
TGI (MCF7 breast): > 125 µM
TGI (SN12K1 renal): > 125 µM
TGI (MALME-3M melanoma): > 125 µM
TGI (OVCAR-3 ovarian): > 125 µM
TGI (KM20L2 colon): > 125 µM
TGI (SW-620 colon): > 125 µM
TGI (HT29 colon): > 125 µM
TGI (SF-268 CNS): > 125 µM
TGI (U251 CNS): > 125 µM
TGI (HOP-62 NSCLC): > 125 µM
TGI (A549 NSCLC): > 125 µM
TGI (CAKI-1 renal): > 125 µM
TGI (OVCAR-8 ovarian): > 125 µM
TGI (UACC-62 melanoma): > 125 µM
TGI (UACC-257 melanoma): > 125 µM
TGI (P388 leukemia): > 125 µM

CCOC(=O)Nc1nc2ccc(Cn3cccc3)cc2[nH]1
TGI (MDA-N): 965 nM
TGI (NCI-H522 lung): 2100 nM
TGI (SNB-19 CNS): > 100 µM
TGI (MOLT-4 leukemia): > 100 µM
TGI (LOX IMVI melanoma): > 100 µM
TGI (K-562 leukemia): > 100 µM
TGI (CCRF-CEM leukemia): 25.1 µM
TGI (DMS 114 small cell lung): > 100 µM
TGI (SK-OV-3 ovarian): > 100 µM
TGI (NCI/ADR-RES ovarian): 21.2 µM
TGI (SK-MEL-5 melanoma): > 38.6 µM
TGI (M19-MEL melanoma): > 100 µM
TGI (HCC-2998 colon): > 26.5 µM
TGI (IGROV1 ovarian): > 100 µM
TGI (SF-295 CNS): 20 µM
TGI (DMS 273 small cell lung): > 100 µM
TGI (ACHN renal): > 100 µM
TGI (M14 melanoma): > 100 µM
TGI (NCI-H226 lung): 32.1 µM
TGI (XF 498 CNS): > 85 µM
TGI (A498 renal): 41.6 µM
TGI (RXF-631 renal): > 100 µM
TGI (RXF 393 renal): > 22.3 µM
TGI (HOP-92 NSCLC): > 100 µM
TGI (NCI-H460 lung): > 100 µM
TGI (HCT-116 colon): > 100 µM
TGI (HCT-15 colon): > 100 µM
TGI (OVCAR-4 ovarian): > 100 µM
TGI (SK-MEL-28 melanoma): > 100 µM
TGI (DLD-1 colon): > 100 µM
TGI (SN12C renal): > 100 µM
TGI (HOP-18 NSCLC): > 100 µM
TGI (OVCAR-5 ovarian): > 100 µM
TGI (EKVX NSCLC): > 100 µM
TGI (HL-60(TB) leukemia): 13.4 µM
TGI (SNB-78 CNS): > 100 µM
TGI (COLO 205 colon): 17.7 µM
TGI (UO-31 renal): > 100 µM
TGI (MDA-MB-435): 731 nM
TGI (KM12 colon): > 100 µM
TGI (DU-145 prostate): > 52.5 µM
TGI (SK-MEL-2 melanoma): > 100 µM
TGI (NCI-H23 lung): > 100 µM
TGI (SNB-75 CNS): 2110 nM
TGI (RPMI-8226 leukemia): > 100 µM
TGI (SF-539 CNS): 7.09 µM
TGI (MDA-MB-231 breast): > 27.2 µM
TGI (TK-10 renal): > 100 µM
TGI (MCF7 breast): > 100 µM
TGI (BT-549 breast): > 100 µM
TGI (SR leukemia): > 36.2 µM
TGI (786-0 renal): > 100 µM
TGI (PC-3 prostate): > 38.2 µM
TGI (MALME-3M melanoma): > 100 µM
TGI (OVCAR-3 ovarian): 6.3 µM
TGI (KM20L2 colon): 12.9 µM
TGI (SW-620 colon): > 100 µM
TGI (HT29 colon): > 56.3 µM
TGI (SF-268 CNS): > 100 µM
TGI (U251 CNS): > 64.8 µM
TGI (HOP-62 NSCLC): > 67.1 µM
TGI (T-47D breast): > 100 µM
TGI (A549 NSCLC): > 100 µM
TGI (CAKI-1 renal): > 100 µM
TGI (HS 578T breast): > 100 µM
TGI (OVCAR-8 ovarian): > 100 µM
TGI (LXFL 529 NSCLC): > 100 µM
TGI (UACC-62 melanoma): > 100 µM
TGI (UACC-257 melanoma): 26.2 µM
